The assay has as its target AMPA ((RS)-α-amino-3-hydroxy-5-methyl-4-isoxazolepropionic acid) binding site. The assay is described as follows: AMPA binding assay (T. Honoré et al., Neuroscience Letters 54, 27-32 (1985)). The note with it: AMPA binding assay as described by T. Honoré et al.; read-out: IC₅₀. The method, then: In the same assay 8-Methyl-5,7,8,9-tetrahydro-1H-pyrrolo[3,2-h]isoquinoline-2,3-dione-3-oxime has an IC₅₀ of 0.2 µM.

With `CN1CC=C2C(=C3NC(=O)C(=NO)C3=CC2S(=O)(=O)N(C)C)C1` (centres unmarked) [Example 6, 5-dimethylsulfamoyl-8-Methyl-5,7,8,9-tetrahydro-1H-pyrrolo[3,2-h]isoquinoline-2,3-dione-3-oxime], the IC50 worked out at 0.4 µM.
In the case of `CN1CC=C2CC=C3C(=NO)C(=O)NC3=C2C1` [Example 7, 8-Methyl-5,7,8,9-tetrahydro-1H-pyrrolo[3,2-h]isoquinoline-2,3-dione-3-oxime], the IC50 was found to be 0.2 µM.

For the origin of these results see patent EP0633262A1, “Novel isatineoxime derivatives, their preparation and use” (NEUROSEARCH A/S, priority 1993, dated 1995).
